Our source for the MIC values is ChEMBL document CHEMBL1137628, “Bactericidal activity of extended 9-glycyl-amido-minocyclines” (2007).

In brackets after ≈: the same amount, converted by molar mass.

This experiment concerns Staphylococcus aureus. As to the kind of experiment: Antibacterial activity against Staphylococcus aureus Rosenbach after 14 hrs. It is filed as functional.

Broadly, the MIC is the smallest concentration in the dilution series that meets the test's criterion for growth inhibition. Low values mean a more susceptible organism, high ones a less susceptible organism. In turn, `CN(C)c1cc(NC(=O)CN)c(O)c2c1C[C@H]1C[C@H]3[C@H](N(C)C)C(O)=C(C(N)=O)C(=O)[C@@]3(O)C(O)=C1C2=O` showed an MIC of 2 µg/mL (≈ 3.78 µM).
`CN(C)c1ccc(O)c2c1C[C@H]1C[C@H]3[C@H](N(C)C)C(O)=C(C(N)=O)C(=O)[C@@]3(O)C(O)=C1C2=O` [MINOCYCLINE] registered an MIC of 0.125 µg/mL (≈ 0.273 µM).
The figure for `CN(C)c1cc(NC(=O)CNN)c(O)c2c1C[C@H]1C[C@H]3[C@H](N(C)C)C(O)=C(C(N)=O)C(=O)[C@@]3(O)C(O)=C1C2=O` is 2 µg/mL (≈ 3.67 µM).
With `CN(C)c1cc(N)c(O)c2c1C[C@H]1C[C@H]3[C@H](N(C)C)C(O)=C(C(N)=O)C(=O)[C@@]3(O)C(O)=C1C2=O`, the MIC came to 2 µg/mL (≈ 4.23 µM).
